Measurements as given in patent US20260130885A1, “ANTIMICROBIAL COMPOSITIONS, PHARMACEUTICAL COMPOSITIONS AND USE THEREOF” (priority 2022, published 2026).
Converted amounts (≈) assume the structure as drawn. Like-named read-outs stand apart in the source and are kept apart here.

Tests used:
MRSA SCCmec VT = test: Antibacterial activity assay (MIC, broth microdilution); assay type: cell-based, Staphylococcus aureus; details: for MIC: Staphylococcus aureus, MRSA; for combination effect: MIC
VRSA SJC1200 = test: as above; assay type: cell-based, Staphylococcus aureus; details: for MIC: Staphylococcus aureus, VRSA; for combination effect: MIC
[1] = test system: antibiotic-resistant Staphylococcus aureus; test: MIC against all strains of Table 4; assay type: cell-based; details: agent alone, all the bacterial strains under the examination
Description: (§1) The antimicrobial activity was based on MIC and MBC; MIC is the minimum inhibitory concentration and MBC is the minimum bactericidal concentration. The MIC of individual test agents against MRSA USA300 strains was determined using the broth microdilution method according to CLSI guidelines. Briefly, overnight bacterial cultures in LB medium were diluted 1:50 in fresh LB medium and incubated at 37° C. until reaching an OD600 of 0.5 to 0.6. Bacterial suspensions were diluted to a final concentration of 5×10^5 cfu/mL in fresh CAMHB and then exposed to each test agent at increasing doses in triplicate in 96-well plates for 24 hours at 37° C. The MIC of each agent was defined as the lowest concentration without visible bacterial growth. […] The lowest broth dilution that had no viable bacteria was considered the MBC.
Then, the combination effect was measured by calculating their corresponding fractional inhibitory concentration index (FICI) with the equation ΣFIC (FICi)=FICA+FICB=(CombA/MICA)+(CombB/MICB), where MICA and MICB are the MICs of drugs A and B alone, respectively, and CombA and CombB are the concentrations of drugs A and B in combination, respectively. […]
The antibacterial activity of the SC5005-DHA composition against a series of antibiotic-resistant Staphylococcus aureus was analyzed, and the results are shown in Table 4.

S. aureus ATCC29213 = test: Antibacterial activity assay (MIC, broth microdilution); assay type: cell-based, Staphylococcus aureus; details: for MIC: Staphylococcus aureus; for combination effect: MIC, +8 mg/L DHA
MRSA ATCC33591 = test: as above; assay type: cell-based, Staphylococcus aureus; details: for MIC: Staphylococcus aureus; for combination effect: MIC
MRSA ATCC33592 = test: as above; assay type: cell-based, Staphylococcus aureus; details: for MIC: Staphylococcus aureus; for combination effect: MIC
S. aureus DAP-NS = test: as above; assay type: cell-based, Staphylococcus aureus; details: for MIC: Staphylococcus aureus; for combination effect: MIC
MRSA ATCC49476 = test: as above; assay type: cell-based, Staphylococcus aureus; details: for MIC: Staphylococcus aureus; for combination effect: MIC
MRSA USA300 = test: Antibacterial activity assay (MIC by broth microdilution, MBC by subculture); assay type: cell-based, Staphylococcus aureus; details: for combination effect: MIC; for bactericidal combination effect of the fatty acid with SC5005 (in words): MBC, Table 2; for effect of the fatty acid on the MIC of SC5005 (in words): summary of Table 1
Description: as §1
Then, the combination effect was measured by calculating their corresponding fractional inhibitory concentration index (FICI) with the equation ΣFIC (FICi)=FICA+FICB=(CombA/MICA)+(CombB/MICB), where MICA and MICB are the MICs of drugs A and B alone, respectively, and CombA and CombB are the concentrations of drugs A and B in combination, respectively. […] was defined as an FICI≤0.5, no interaction was defined as an FICI>0.5-4.0, and antagonism was defined as an FICI>4.

S. aureus NCTC8325 = test: Antibacterial activity assay (MIC, broth microdilution); assay type: cell-based, Staphylococcus aureus; details: for MIC: Staphylococcus aureus; for combination effect: MIC, +8 mg/L DHA
MRSA ATCC43300 = test: as above; assay type: cell-based, Staphylococcus aureus; details: for MIC: Staphylococcus aureus; for combination effect: MIC
[2] = Staphylococcus aureus, fatty acid alone, read-out: MBC fatty acid
[3] = Staphylococcus aureus, fatty acid alone, read-out: MIC fatty acid
[4] = +8 mg/L DHA, MRSA USA300 (Table 4)
[5] = Staphylococcus aureus, amide compound alone, read-out: MBC
[6] = Staphylococcus aureus, amide compound alone, read-out: MIC
[7] = agent alone, MRSA USA300 (Table 4)

MIC (MRSA SCCmec VT; agent alone) [µg/mL]	MIC (VRSA SJC1200; agent alone) [µg/mL]	MIC (S. aureus ATCC29213; ATCC29213, agent alone) [µg/mL]	MIC (MRSA ATCC33591; agent alone) [µg/mL]	MIC (MRSA ATCC33592; agent alone) [µg/mL]	MIC (S. aureus DAP-NS; agent alone) [µg/mL]	MIC (MRSA ATCC49476; agent alone) [µg/mL]	MIC (MRSA USA300; [3]) [µg/mL]	MIC (S. aureus NCTC8325; NCTC8325, agent alone) [µg/mL]	MIC (MRSA ATCC43300; agent alone) [µg/mL]	MIC (MRSA SCCmec VT; +8 mg/L DHA) [µg/mL]	MIC (VRSA SJC1200; +8 mg/L DHA) [µg/mL]	MIC (S. aureus ATCC29213; ATCC29213, +8 mg/L DHA) [µg/mL]	MIC (MRSA ATCC33591; +8 mg/L DHA) [µg/mL]	Compound	MBC (MRSA USA300; [2]) [µg/mL]	combination effect (MRSA SCCmec VT; +8 mg/L DHA)	combination effect (VRSA SJC1200; +8 mg/L DHA)	combination effect (S. aureus ATCC29213)	combination effect (MRSA ATCC33591; +8 mg/L DHA)	combination effect (MRSA ATCC33592; +8 mg/L DHA)	other results
> 64	> 64	64 (≈ 138 µM)	> 64	> 64	32 (≈ 68.8 µM)	> 64		4 (≈ 8.61 µM)	> 64	0.5 (≈ 1.08 µM)	0.5 (≈ 1.08 µM)	0.5 (≈ 1.08 µM)	0.5 (≈ 1.08 µM)	CNC(=O)c1cc(Oc2ccc(NC(=O)Nc3ccc(Cl)c(C(F)(F)F)c3)cc2)ccn1 [Sorafenib]		(Syn) (Synergy (Syn) was defined as an FICI≤0.5)	(Syn) (Synergy (Syn) was defined as an FICI≤0.5)	(Syn) (Synergy (Syn) was defined as an FICI≤0.5)	(Syn) (Synergy (Syn) was defined as an FICI≤0.5)	(Syn) (Synergy (Syn) was defined as an FICI≤0.5)	MIC (MRSA ATCC33592; +8 mg/L DHA): 0.5 µg/mL (≈ 1.08 µM); combination effect (S. aureus DAP-NS; +8 mg/L DHA): (Syn) (Synergy (Syn) was defined as an FICI≤0.5); MIC (S. aureus DAP-NS; +8 mg/L DHA): 0.5 µg/mL (≈ 1.08 µM); combination effect (MRSA ATCC49476; +8 mg/L DHA): (Syn) (Synergy (Syn) was defined as an FICI≤0.5); MIC (MRSA ATCC49476; +8 mg/L DHA): 0.5 µg/mL (≈ 1.08 µM); MBC (MRSA USA300; +8 mg/L DHA): 1 µg/mL; MIC (MRSA USA300; +8 mg/L DHA): 0.5 µg/mL; MIC (MRSA USA300; [4]): 0.5 µg/mL; combination effect (MRSA USA300; [4]): (Syn) (Synergy (Syn) was defined as an FICI≤0.5); MBC (MRSA USA300; [5]): > 64 µg/mL; MIC (MRSA USA300; [6]): > 64 µg/mL; MIC (MRSA USA300; [7]): >64 µg/mL; combination effect (S. aureus NCTC8325): (Syn) (Synergy (Syn) was defined as an FICI≤0.5); MIC (S. aureus NCTC8325; NCTC8325, +8 mg/L DHA): 0.5 µg/mL (≈ 1.08 µM); combination effect (MRSA ATCC43300; +8 mg/L DHA): (Syn) (Synergy (Syn) was defined as an FICI≤0.5); MIC (MRSA ATCC43300; +8 mg/L DHA): 0.5 µg/mL (≈ 1.08 µM)
							> 1020							CCCCCCCC/C=C/CCCCCCCC(=O)O [elaidic acid]	> 1020						synergy of the fatty acid with SC5005 (in words) (MRSA USA300; summary of Tables 1 and 2): did not exhibit synergy with SC5005
							512							CCCCCCCC/C=C\CCCCCCCCCC(=O)O [gondoic acid]	> 1020						bactericidal combination effect of the fatty acid with SC5005 (in words) (MRSA USA300): exhibited a synergistic bactericidal effect with SC5005; effect of the fatty acid on the MIC of SC5005 (in words) (MRSA USA300): had no effect on the MIC of SC5005

Continued, compound first:

Compound	MIC (MRSA SCCmec VT; agent alone) [µg/mL]	MIC (VRSA SJC1200; agent alone) [µg/mL]	MIC (S. aureus ATCC29213; ATCC29213, agent alone) [µg/mL]	MIC (MRSA ATCC33591; agent alone) [µg/mL]	MIC (MRSA ATCC33592; agent alone) [µg/mL]	MIC (S. aureus DAP-NS; agent alone) [µg/mL]	MIC (MRSA ATCC49476; agent alone) [µg/mL]	MIC (MRSA USA300; [3]) [µg/mL]	MIC (S. aureus NCTC8325; NCTC8325, agent alone) [µg/mL]	MIC (MRSA ATCC43300; agent alone) [µg/mL]	MIC (MRSA SCCmec VT; +8 mg/L DHA) [µg/mL]	MIC (VRSA SJC1200; +8 mg/L DHA) [µg/mL]	MIC (S. aureus ATCC29213; ATCC29213, +8 mg/L DHA) [µg/mL]	MIC (MRSA ATCC33591; +8 mg/L DHA) [µg/mL]	MBC (MRSA USA300; [2]) [µg/mL]	combination effect (MRSA SCCmec VT; +8 mg/L DHA)	combination effect (VRSA SJC1200; +8 mg/L DHA)	combination effect (S. aureus ATCC29213)	combination effect (MRSA ATCC33591; +8 mg/L DHA)	combination effect (MRSA ATCC33592; +8 mg/L DHA)	other results
CC/C=C\C/C=C\C/C=C\C/C=C\C/C=C\C/C=C\CCC(=O)O [DHA, docosahexaenoic acid]	1020 (≈ 3120 µM)	1020 (≈ 3120 µM)	1020 (≈ 3120 µM)	1020 (≈ 3120 µM)	1020 (≈ 3120 µM)	1020 (≈ 3120 µM)	1020 (≈ 3120 µM)	1020	1020 (≈ 3120 µM)	1020 (≈ 3120 µM)					1020						MIC [1]: 1020 µg/mL; MIC (MRSA USA300; Staphylococcus aureus, agent alone, MRSA USA300 (Table 4), read-out: MIC): 1020 µg/mL
O=C(Nc1ccc2c(c1)OC(F)(F)O2)Nc1ccc(Cl)c(C(F)(F)F)c1 [PK150]	0.125 (≈ 0.317 µM)	0.125 (≈ 0.317 µM)	0.0625 (≈ 0.158 µM)	0.0625 (≈ 0.158 µM)	0.0625 (≈ 0.158 µM)	0.0625 (≈ 0.158 µM)	0.0625 (≈ 0.158 µM)		0.0625 (≈ 0.158 µM)	0.0625 (≈ 0.158 µM)	0.00098 (≈ 0.00248 µM)	0.00012 (≈ 0.000304 µM)	0.0039 (≈ 0.00988 µM)	6.1e-05 (≈ 0.000155 µM)		(Syn) (Synergy (Syn) was defined as an FICI≤0.5)	(Syn) (Synergy (Syn) was defined as an FICI≤0.5)	(Syn) (Synergy (Syn) was defined as an FICI≤0.5)	| (Syn) (Synergy (Syn) was defined as an FICI≤0.5)	(Syn) (Synergy (Syn) was defined as an FICI≤0.5)	MIC (MRSA ATCC33592; +8 mg/L DHA): 0.00098 µg/mL (≈ 0.00248 µM); combination effect (S. aureus DAP-NS; +8 mg/L DHA): (Syn) (Synergy (Syn) was defined as an FICI≤0.5); MIC (S. aureus DAP-NS; +8 mg/L DHA): 0.0156 µg/mL (≈ 0.0395 µM); combination effect (MRSA ATCC49476; +8 mg/L DHA): | (Syn) (Synergy (Syn) was defined as an FICI≤0.5); MIC (MRSA ATCC49476; +8 mg/L DHA): 1.5e-05 µg/mL (≈ 3.8e-05 µM); MBC (MRSA USA300; +8 mg/L DHA): 0.00098 µg/mL; MIC (MRSA USA300; +8 mg/L DHA): 0.00049 µg/mL; MIC (MRSA USA300; [4]): 0.00049 µg/mL; synergy of the amide compound with DHA (in words) (MRSA USA300; MIC after adding DHA is less than ¼ of its original MIC, 8 mg/L DHA): synergistic antibacterial activity with DHA; combination effect (MRSA USA300; [4]): (Syn) (Synergy (Syn) was defined as an FICI≤0.5); MBC (MRSA USA300; [5]): 2 µg/mL; MIC (MRSA USA300; [6]): 0.0625 µg/mL; MIC (MRSA USA300; [7]): 0.0625 µg/mL; combination effect (S. aureus NCTC8325): (Syn) (Synergy (Syn) was defined as an FICI≤0.5); MIC (S. aureus NCTC8325; NCTC8325, +8 mg/L DHA): 3.5e-05 µg/mL (≈ 8.87e-05 µM); combination effect (MRSA ATCC43300; +8 mg/L DHA): (Syn) (Synergy (Syn) was defined as an FICI≤0.5); MIC (MRSA ATCC43300; +8 mg/L DHA): 0.00098 µg/mL (≈ 0.00248 µM)
CCCCCCCC/C=C\CCCCCCCCCCCC(=O)O [erucic acid]								128							1020						bactericidal combination effect of the fatty acid with SC5005 (in words) (MRSA USA300): exhibited a synergistic bactericidal effect with SC5005; effect of the fatty acid on the MIC of SC5005 (in words) (MRSA USA300): had no effect on the MIC of SC5005
